Data reported in patent publication US11014911B2, “CDK2 inhibitors” (Pfizer Inc., priority 2019, dated 2021).
Read-outs that look alike come from different tables or passages of the source.

Assays:
CDK9 = CDK9 (Homo sapiens (Human), UniProt P50750); assay: CDK9 biochemical assay
CDK6/cyclin D3 = CDK6/cyclin D3 (Homo sapiens (Human), UniProt Q00534); assay: CDK6/Cyclin D3 mobility shift assay; details: Biochemical Assay: CDK6/cyclin D3
Source text: CDK6/Cyclin D3 Mobility Shift Assay

GSK3β (H350L) [1] = molecular target: T1, GSK3β (H350L) (Homo sapiens (Human), UniProt P49841); details: read-out: GSK3β Ki
T1 sequence (P49841 whole entry, stated change not applied): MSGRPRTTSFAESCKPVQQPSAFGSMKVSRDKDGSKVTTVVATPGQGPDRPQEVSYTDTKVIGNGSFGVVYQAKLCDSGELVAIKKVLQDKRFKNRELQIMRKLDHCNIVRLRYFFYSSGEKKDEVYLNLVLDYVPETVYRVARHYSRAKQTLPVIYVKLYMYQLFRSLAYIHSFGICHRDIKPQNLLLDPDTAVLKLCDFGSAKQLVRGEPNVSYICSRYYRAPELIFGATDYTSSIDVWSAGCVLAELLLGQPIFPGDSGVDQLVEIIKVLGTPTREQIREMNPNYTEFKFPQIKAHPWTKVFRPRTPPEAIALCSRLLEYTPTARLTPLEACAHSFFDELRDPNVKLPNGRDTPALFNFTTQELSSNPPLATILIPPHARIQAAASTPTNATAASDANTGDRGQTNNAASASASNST
Method: (§1) The assay was initiated with the addition of ATP, following 15 minutes pre-incubation of enzyme and inhibitor at room temperature in the reaction mixture. The reaction was stopped after 30 minutes at room temperature by the addition of 50 μL of 80 mM EDTA.

[2] = molecular target: CDK2/Cyclin E1 full length (Homo sapiens (Human), UniProt P24941); assay: CDK2/Cyclin E1 full length mobility shift assay; type: biochemical
Method: Cdk2/Cyclin E1 Full Length Mobility Shift Assay
Wild-type CDK2/wild-type full length Cyclin E1 enzyme complex was produced in-house (baculoviral expression, LJIC-2080/LJIC-2103) and phosphorylated by CDK7/Cyclin H1/Matl enzyme complex with CDK2:CDK7 ratio of 50:1 (concentration mg/mL) in the presence of 10 mM MgCl2 and 5 mM ATP at room temperature for one hour. […] The assay was initiated with the addition of ATP, following a fifteen minutes pre-incubation of enzyme and inhibitor at room temperature in the reaction mixture. The reaction was stopped after 45 minutes at room temperature by the addition of 50 μL of 80 mM EDTA.

CDK1/cyclin A2 = CDK1/cyclin A2 (Homo sapiens (Human), UniProt P06493); assay: CDK1/cyclin A2 biochemical assay
CDK1/cyclin A2, sequence (P06493 whole entry, looked up): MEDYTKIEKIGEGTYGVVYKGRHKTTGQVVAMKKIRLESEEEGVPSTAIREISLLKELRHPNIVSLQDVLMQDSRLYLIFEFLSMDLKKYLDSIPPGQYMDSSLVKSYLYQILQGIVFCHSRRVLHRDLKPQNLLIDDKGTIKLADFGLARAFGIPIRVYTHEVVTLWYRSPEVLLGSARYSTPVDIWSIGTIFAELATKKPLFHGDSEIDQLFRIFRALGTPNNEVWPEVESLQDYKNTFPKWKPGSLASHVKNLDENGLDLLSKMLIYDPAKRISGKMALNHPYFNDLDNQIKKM
CDK1/cyclin A2, sequence (P20248 whole entry partner, looked up): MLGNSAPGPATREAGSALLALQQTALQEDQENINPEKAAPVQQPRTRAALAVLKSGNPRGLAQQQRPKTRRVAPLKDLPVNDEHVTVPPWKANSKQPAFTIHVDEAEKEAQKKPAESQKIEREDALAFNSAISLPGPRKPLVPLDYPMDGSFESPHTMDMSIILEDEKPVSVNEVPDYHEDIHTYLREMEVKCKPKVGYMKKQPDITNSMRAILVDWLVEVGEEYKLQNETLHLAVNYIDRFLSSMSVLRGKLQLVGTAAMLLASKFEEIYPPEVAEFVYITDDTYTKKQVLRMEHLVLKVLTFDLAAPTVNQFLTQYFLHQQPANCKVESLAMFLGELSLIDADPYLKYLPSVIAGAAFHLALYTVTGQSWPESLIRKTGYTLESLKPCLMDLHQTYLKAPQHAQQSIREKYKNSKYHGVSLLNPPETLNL

GSK3β (H350L) [3] = molecular target: T1, GSK3β (H350L); assay: biochemical; details: GSK3β Ki (nM)
Method: as §1

CDK9, sequence (P50750 whole entry, looked up): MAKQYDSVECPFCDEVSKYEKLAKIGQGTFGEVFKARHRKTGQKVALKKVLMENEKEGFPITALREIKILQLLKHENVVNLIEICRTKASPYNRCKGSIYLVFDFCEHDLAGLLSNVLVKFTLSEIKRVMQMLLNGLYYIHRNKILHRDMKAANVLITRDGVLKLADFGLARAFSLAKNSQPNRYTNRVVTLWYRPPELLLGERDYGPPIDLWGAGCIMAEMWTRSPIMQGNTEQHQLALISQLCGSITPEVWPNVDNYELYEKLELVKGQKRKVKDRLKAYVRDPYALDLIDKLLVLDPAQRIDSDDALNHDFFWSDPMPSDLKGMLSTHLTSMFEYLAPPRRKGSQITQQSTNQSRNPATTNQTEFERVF
CDK9, sequence (O60563 whole entry partner, looked up): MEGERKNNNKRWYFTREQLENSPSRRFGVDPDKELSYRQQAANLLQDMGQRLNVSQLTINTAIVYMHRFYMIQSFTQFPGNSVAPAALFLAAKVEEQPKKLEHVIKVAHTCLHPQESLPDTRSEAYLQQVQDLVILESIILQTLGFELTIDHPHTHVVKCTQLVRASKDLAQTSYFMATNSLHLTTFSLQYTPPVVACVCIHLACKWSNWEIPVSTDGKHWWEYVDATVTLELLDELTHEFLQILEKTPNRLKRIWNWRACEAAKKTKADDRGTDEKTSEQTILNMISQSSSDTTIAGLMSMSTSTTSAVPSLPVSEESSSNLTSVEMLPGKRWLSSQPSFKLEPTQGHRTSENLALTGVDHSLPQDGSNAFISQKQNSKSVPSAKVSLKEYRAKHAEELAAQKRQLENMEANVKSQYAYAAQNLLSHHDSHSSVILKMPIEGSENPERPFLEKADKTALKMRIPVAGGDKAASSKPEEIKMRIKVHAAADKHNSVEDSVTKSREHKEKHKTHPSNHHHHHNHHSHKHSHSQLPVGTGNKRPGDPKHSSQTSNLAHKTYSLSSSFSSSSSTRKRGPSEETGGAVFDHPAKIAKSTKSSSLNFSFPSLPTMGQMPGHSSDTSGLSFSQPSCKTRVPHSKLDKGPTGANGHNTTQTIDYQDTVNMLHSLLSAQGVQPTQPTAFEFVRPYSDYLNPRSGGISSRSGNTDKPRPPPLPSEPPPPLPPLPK
CDK6/cyclin D3, sequence (Q00534 whole entry, looked up): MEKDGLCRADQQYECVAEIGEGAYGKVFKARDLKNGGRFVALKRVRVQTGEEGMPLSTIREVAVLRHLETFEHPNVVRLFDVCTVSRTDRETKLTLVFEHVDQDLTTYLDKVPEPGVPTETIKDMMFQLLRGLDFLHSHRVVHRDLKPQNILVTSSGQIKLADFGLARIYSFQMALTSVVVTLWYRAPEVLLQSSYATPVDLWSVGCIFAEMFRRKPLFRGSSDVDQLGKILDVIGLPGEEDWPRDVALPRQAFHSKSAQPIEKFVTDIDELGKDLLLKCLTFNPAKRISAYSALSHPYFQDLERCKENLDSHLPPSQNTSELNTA
CDK6/cyclin D3, sequence (P30281 whole entry partner, looked up): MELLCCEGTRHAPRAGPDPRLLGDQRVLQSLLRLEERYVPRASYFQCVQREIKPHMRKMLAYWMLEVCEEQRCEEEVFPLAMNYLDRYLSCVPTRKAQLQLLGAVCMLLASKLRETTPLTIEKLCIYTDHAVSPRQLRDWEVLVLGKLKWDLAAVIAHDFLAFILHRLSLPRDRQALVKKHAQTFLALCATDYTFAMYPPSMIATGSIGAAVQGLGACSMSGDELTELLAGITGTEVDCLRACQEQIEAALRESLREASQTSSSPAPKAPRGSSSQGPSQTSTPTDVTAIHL

Ki [2] [nM]	Ki (GSK3β (H350L) [3]) [nM]	SMILES	Ki (CDK9) [nM]	Ki (CDK6/cyclin D3) [nM]	Ki (GSK3β (H350L) [1]) [nM]	Ki (CDK1/cyclin A2) [nM]
0.17	17.9	CC(CC(F)(F)F)NC(=O)O[C@@H]1CC[C@H](c2cc(NC(=O)Cc3ccn(C)n3)n[nH]2)C1 (single isomer, unassigned) [Example 66]	–	–	–	–
0.34	32.9	Cc1c(CC(=O)Nc2cc([C@H]3CC[C@@H](OC(=O)NC(C)CC(F)(F)F)C3)[nH]n2)cnn1C (single isomer, unassigned) [Example 401]	–	–	–	–
0.08	5	CCC1(C)CCN1C(=O)O[C@@H]1CC[C@H](c2cc(NC(=O)Cc3cc(C)no3)n[nH]2)C1 (single isomer, unassigned) [Example 604]	–	–	–	–
0.59	18.2	Cc1cc(CC(=O)Nc2cc([C@H]3CC[C@@H](OC(=O)N4CCC4C)C3)[nH]n2)on1 (single isomer, unassigned) [Example 589]	–	–	–	–
0.77	74.2	C[C@H](F)[C@H](C)NC(=O)O[C@@H]1CC[C@H](c2cc(NC(=O)Cc3cnn(C)c3)n[nH]2)C1 (single isomer, unassigned) [Example 382, (1R,3S)-3-(3-{[(1-methyl-1H-pyrazol-4-yl)acetyl]amino}-1H-pyrazol-5-yl)cyclopentyl [(2S*,3S*)-3-fluorobutan-2-yl]carbamate]	–	–	–	–
0.54	20.9	CCC1CCN1C(=O)O[C@@H]1CC[C@H](c2cc(NC(=O)Cc3cc(C)no3)n[nH]2)C1 (single isomer, unassigned) [Example 597]	–	–	–	–
0.25	101	COCc1cc(C(=O)Nc2cc([C@H]3CC[C@@H](OC(=O)NC(C)CC(F)(F)F)C3)[nH]n2)n(C)n1 (single isomer, unassigned) [Example 10]	–	–	–	–
0.19	12.6	Cc1cnc(CC(=O)Nc2cc([C@H]3CC[C@@H](OC(=O)NC(C)CC(F)(F)F)C3)[nH]n2)o1 (single isomer, unassigned) [Example 82]	–	–	–	–

More lines, now with the values behind:

SMILES	Ki [2] [nM]	Ki (GSK3β (H350L) [3]) [nM]	Ki (CDK9) [nM]	Ki (CDK6/cyclin D3) [nM]	Ki (GSK3β (H350L) [1]) [nM]	Ki (CDK1/cyclin A2) [nM]
COCc1cc(C(=O)Nc2cc([C@H]3CC[C@@H](OC(=O)NC(C)C)C3)[nH]n2)n(C)n1 [Example 13, (1R,3S)-3-[3-({[3-(methoxymethyl)-1-methyl-1H-pyrazol-5-yl]carbonyl}amino)-1H-pyrazol-5-yl]cyclopentyl propan-2-ylcarbamate]	–	–	177	465	538	–
Cc1cc(CC(=O)Nc2cc([C@H]3CC[C@@H](OC(=O)NC4(C)CC4)C3)[nH]n2)on1 [Example 15, (1R,3S)-3-(3-{[(3-methyl-1,2-oxazol-5-yl)acetyl]amino}-1H-pyrazol-5-yl)cyclopentyl (1-methylcyclopropyl)carbamate]	0.17	–	6.3	58.6	29.3	16.4
CCC(NC(=O)O[C@@H]1CC[C@H](c2cc(NC(=O)Cc3cc(C)no3)n[nH]2)C1)C(F)(F)F (single isomer, unassigned) [Example 396]	2.1	139	–	–	–	–
Cc1cnc(CC(=O)Nc2cc([C@@H]3CC[C@H](OC(=O)NC4(C)CCOC4)C3)[nH]n2)o1 (single isomer, unassigned) [Example 475]	0.83	23.9	–	–	–	–
Cc1cnc(CC(=O)Nc2cc([C@@H]3CC[C@H](OC(=O)NC4(C)CCOC4)C3)[nH]n2)o1 (single isomer, unassigned) [Example 476]	0.45	30.9	–	–	–	–
CCC(NC(=O)O[C@@H]1CC[C@H](c2cc(NC(=O)Cc3cc(C)no3)n[nH]2)C1)C(F)(F)F (single isomer, unassigned) [Example 397]	1.87	155	–	–	–	–
COCc1cc(C(=O)Nc2cc([C@H]3CC[C@@H](OC(=O)NC(C)CC(F)(F)F)C3)[nH]n2)n(C)n1 (single isomer, unassigned) [Example 9]	1.14	> 95.3	–	–	–	–
COc1cc(CC(=O)Nc2cc([C@H]3CC[C@@H](OC(=O)N[C@@H](C)[C@H](C)F)C3)[nH]n2)ccn1 (single isomer, unassigned) [Example 385, (1R,3S)-3-(3-{[(2-methoxypyridin-4-yl)acetyl]amino}-1H-pyrazol-5-yl)cyclopentyl [(2S*,3S*)-3-fluorobutan-2-yl]carbamate]	0.52	25.9	–	–	–	–
CC(CC(F)(F)F)NC(=O)O[C@@H]1CC[C@H](c2cc(NC(=O)c3ccnn3CCN(C)C)[nH]n2)C1 (single isomer, unassigned) [Example 410]	0.42	55.5	–	–	–	–
